Measurements taken from patent US20220361555A1, “INHIBITION OF UNDESIRED SENSORY EFFECTS BY THE COMPOUND CAMPHOR” (priority 2010, published 2022).
Several values for one entry are separate records, joined by “and”; a condition that tells them apart may be missing. Identical values can stand only once. Entries after “also recorded” stand apart in the source; their conditions may differ.

What was measured:
[1] = test system: tongues of human volunteers; experiment: Pre-treatment with camphor (ethanol/water solution on a strip) on sensory irritation from nicotine; format: in vivo; details: 25, 50 or 100 ppm camphor on a strip for 30 seconds, then 0.1-0.3% nicotine; immediately and 30 seconds after initial exposure
Excerpt: FIGS. 1 and 2 show the results of a study on the effect of pre-treatment with camphor on sensory irritation from nicotine. Camphor was applied to tongues of human volunteers prior to application of a nicotine solution. Randomized sides of tongues were selected for application of 20 microliters of 0 ppm, 25 ppm, 50 ppm, or 100 ppm of camphor from an ethanol/water solution on a strip (thus, about […], respectively) for 30 seconds. Then, the subjects sipped, rinsed, then spit 0.1%, 0.2%, or 0.3% of a nicotine solution for a 5 second application. Participants were then asked which side of the tongue has the strongest burning sensation. Responses were collected both immediately (within 5 seconds) (FIG. 1) and after 30 seconds (FIG. 2). Controls received no camphor, and a baseline was established at zero camphor.

participants (mouth) = experiment: Determination of irritation threshold of camphor solution in the mouth; format: in vivo, human; parameters: key to irritation perceived: Y: the participant felt irritation at the indicated concentration; N: no irritation was felt; details: for irritation perceived: 2 ml solution swished 10 seconds
Procedure: A further study was conducted to determine the threshold at which camphor itself would cause sensory irritation.
Each test used two milliliters (2 ml) of a camphor solution. The camphor was dissolved in ethanol and further diluted in water. Participants received sequentially increasing concentration of camphor. Nine participants received samples including food grade racemic camphor, with concentrations of 200, 300, 400, […] 1000, 2000, 4000, 6000 ppm (corresponding to about […] per sample, respectively).
Participants wore nose clips during evaluation. Each participant sipped the sample, swished it in the mouth for 10 seconds, then spat it out. Each participant then indicated whether irritation was perceived. Between evaluations of each sample, participants rinsed with water and waited for one minute.
The left-most column indicates the participant number of each individual participant.

[2] = test system: mouth of subjects using oral tobacco; experiment: Snus pouches with camphor, perceived burning in the mouth (2AFC); format: in vivo, human; details: snus pouch
Procedure: A further study was conducted to determine if camphor affected perceived burning in the mouth of subjects using oral tobacco. Participants were given two snus pouch samples to use simultaneously, one in each side of the mouth. One sample was a control pouch with no camphor added and the other contained various concentrations of camphor (2.3, 6, 12, 23, 46, and 69 nanograms, corresponding to […], based on tobacco weight, respectively).
The hand-made test samples were constructed using unflavored tobacco (12% oven volatiles) to prevent any possible interference of the flavor system with the objective of the study. In preparing the pouches, the camphor was dissolved in 95% ethanol, with the control pouches receiving the ethanol only. […]
After two (2) minutes, five (5) minutes, and ten (10) minutes of using the samples, participants were asked to indicate which side of the mouth was burning more. Responses were recorded on paper by the experimenter. […] Following each evaluation, participants were asked to give details regarding where the burning was felt and to provide any open-ended comments regarding their experience, which were recorded on paper by the experimenter. Participants repeated the sensory evaluation procedures an additional six (6) times, with a maximum of two (2) pairs being evaluated each day.

[3] = test system: tongues of 18 participants; experiment: Camphor in NEOBEE oil carrier pretreatment, burning sensation from nicotine strips; format: in vivo, human; parameters: Difference from control (burning from nicotine): scale not given here
Procedure: Camphor pretreatment was performed using two taste strips applied bilaterally (blinded, randomized) on the tongues of 18 participants. Test strips had 250 microliters of NEOBEE oil carrier with camphor concentrations of C ranging from 300 ppm to 1800 ppm. Control strips contained 250 microliters of carrier only (NEOBEE Oil). The pretreatment time was about 30 seconds. Participants then removed the taste strips and nicotine strips were placed in treated area. The nicotine was provided in an amount of 730 micrograms in 50 microliters for about 30 seconds. Each nicotine strip was then removed, followed by sensory evaluation of burning immediately, at 30 seconds, and 2 minutes. For sensory evaluation, 2 AFC and sensory irritation intensity ratings were generated.
A repeated measures analysis of variance (ANOVA) model was applied to analyze the data. The model includes terms for study participant, study time and concentration of camphor (see the Table 1). The SAS procedure “PROC MIXED” was used. The p value was for the comparison between each concentration with the control. The chi squared test was used for calculating significance for forced choice values.

[4] = Sensory effect of camphor in mineral oil in smokeless tobacco products; format: in vivo
nerve fibers = details: isolated mouse trachea model, Kichko et al.; cited from earlier work
acetylcholine receptors = details: by inhibiting acetylcholine receptors, Park et al.; cited from earlier work

CC12CCC(CC1=O)C2(C)C (racemic) [camphor]
perceived burning from nicotine after pre-treatment with camphor [1]: significantly reduced perceived burning from nicotine | irritation perceived (participants (mouth); 200 ppm camphor, one line per participant): Y (3×) and N (6×) | irritation perceived (participants (mouth); 300 ppm camphor, one line per participant): Y (3×) and N (6×) | irritation perceived (participants (mouth); 400 ppm camphor, one line per participant): Y (4×) and N (4×) | irritation perceived (participants (mouth); 500 ppm camphor, one line per participant): N (3×) and Y (3×) | irritation perceived (participants (mouth); 1000 ppm camphor, one line per participant): N and Y (2×) | irritation perceived (participants (mouth); 2000 ppm camphor, one line per participant): Y | irritation perceived (participants (mouth); 4000 ppm camphor, one line per participant): Y | irritation perceived (participants (mouth); 6000 ppm camphor, one line per participant): Y | mean threshold for producing irritation (participants (mouth); n=9): 655 ppm | Notes (sensation described by participant) (participants (mouth); one line per participant, first line given): Very slight tingling at 200,; also recorded: Felt slight tingling at 2000,; also recorded: Felt some tingling at 1000,; also recorded: Tingling at 300, tingling no; also recorded: Slight tingling and burning at; also recorded: No Burning, slight tingling on; also recorded: Some burning at 200, stronger; also recorded: Felt slight tingling at 500,; also recorded: Some burning and stinging at | time at which the effect on oral burning was strongest ([2]; asked at 2, 5 and 10 minutes): 10 min | quantity of camphor most effective in reducing oral burning ([2]; printed as corresponding to 50 ppm): 12 nanogram | sensory irritation from nicotine versus control ([3]; 600 ppm, 900 ppm and 1200 ppm camphor, immediately, at 30 seconds and at 120 seconds after nicotine): significant reduction in sensory irritation from nicotine | Difference from control (burning from nicotine) ([3]; study time 0 sec, camphor 300 ppm in NEOBEE oil): 4.31 | Difference from control (burning from nicotine) ([3]; study time 0 sec, camphor 600 ppm in NEOBEE oil): −24.03 | Difference from control (burning from nicotine) ([3]; study time 0 sec, camphor 900 ppm in NEOBEE oil): −22.64 | Difference from control (burning from nicotine) ([3]; study time 0 sec, camphor 1200 ppm in NEOBEE oil): −19.99 | Difference from control (burning from nicotine) ([3]; study time 0 sec, camphor 1500 ppm in NEOBEE oil): −8.62 | Difference from control (burning from nicotine) ([3]; study time 0 sec, camphor 1800 ppm in NEOBEE oil): 7.29 | Difference from control (burning from nicotine) ([3]; study time 30 sec, camphor 300 ppm in NEOBEE oil): −1.67 | Difference from control (burning from nicotine) ([3]; study time 30 sec, camphor 600 ppm in NEOBEE oil): −18.00 | Difference from control (burning from nicotine) ([3]; study time 30 sec, camphor 900 ppm in NEOBEE oil): −19.72 | Difference from control (burning from nicotine) ([3]; study time 30 sec, camphor 1200 ppm in NEOBEE oil): −14.30 | Difference from control (burning from nicotine) ([3]; study time 30 sec, camphor 1500 ppm in NEOBEE oil): −11.11 | Difference from control (burning from nicotine) ([3]; study time 30 sec, camphor 1800 ppm in NEOBEE oil): 5.25 | Difference from control (burning from nicotine) ([3]; study time 120 sec, camphor 300 ppm in NEOBEE oil): −2.12 | Difference from control (burning from nicotine) ([3]; study time 120 sec, camphor 600 ppm in NEOBEE oil): −13.80 | Difference from control (burning from nicotine) ([3]; study time 120 sec, camphor 900 ppm in NEOBEE oil): −17.69 | Difference from control (burning from nicotine) ([3]; study time 120 sec, camphor 1200 ppm in NEOBEE oil): −11.93 | Difference from control (burning from nicotine) ([3]; study time 120 sec, camphor 1500 ppm in NEOBEE oil): −2.38 | Difference from control (burning from nicotine) ([3]; study time 120 sec, camphor 1800 ppm in NEOBEE oil): 2.16 | concentration of camphor that does not exhibit a sensory effect of its own (smell, taste, extensive cooling) [4]: less than 1300 ppm | activation of nerve fibers induced by nicotine (nerve fibers): effectively inhibit activation of nerve fibers | norepinephrine release from adrenal gland cells (acetylcholine receptors): inhibit norepinephrine release
